The target in one assay is CSF1R (Homo sapiens, UniProt P07333). In words: KINOMEscan competition binding assay for CSF1R. Also noted: DNA tag for qPCR (not a peptide); host or cells: E. coli/T7 phage or HEK-293. In outline:
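Values are either % inhibition at 0.1 uM, relative to DMSO (100% Ctrl) and a control compound (0% Ctrl), or Kd from an 11-point 3-fold series fitted with Hill slope −1. DNA-tagged kinase binds immobilized ligand beads with compound for 1 h at room temperature, and eluted kinase is measured by qPCR.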

The target in the next assay is T1, Axl (Homo sapiens, UniProt P30530).
T1 sequence (P30530 26-894): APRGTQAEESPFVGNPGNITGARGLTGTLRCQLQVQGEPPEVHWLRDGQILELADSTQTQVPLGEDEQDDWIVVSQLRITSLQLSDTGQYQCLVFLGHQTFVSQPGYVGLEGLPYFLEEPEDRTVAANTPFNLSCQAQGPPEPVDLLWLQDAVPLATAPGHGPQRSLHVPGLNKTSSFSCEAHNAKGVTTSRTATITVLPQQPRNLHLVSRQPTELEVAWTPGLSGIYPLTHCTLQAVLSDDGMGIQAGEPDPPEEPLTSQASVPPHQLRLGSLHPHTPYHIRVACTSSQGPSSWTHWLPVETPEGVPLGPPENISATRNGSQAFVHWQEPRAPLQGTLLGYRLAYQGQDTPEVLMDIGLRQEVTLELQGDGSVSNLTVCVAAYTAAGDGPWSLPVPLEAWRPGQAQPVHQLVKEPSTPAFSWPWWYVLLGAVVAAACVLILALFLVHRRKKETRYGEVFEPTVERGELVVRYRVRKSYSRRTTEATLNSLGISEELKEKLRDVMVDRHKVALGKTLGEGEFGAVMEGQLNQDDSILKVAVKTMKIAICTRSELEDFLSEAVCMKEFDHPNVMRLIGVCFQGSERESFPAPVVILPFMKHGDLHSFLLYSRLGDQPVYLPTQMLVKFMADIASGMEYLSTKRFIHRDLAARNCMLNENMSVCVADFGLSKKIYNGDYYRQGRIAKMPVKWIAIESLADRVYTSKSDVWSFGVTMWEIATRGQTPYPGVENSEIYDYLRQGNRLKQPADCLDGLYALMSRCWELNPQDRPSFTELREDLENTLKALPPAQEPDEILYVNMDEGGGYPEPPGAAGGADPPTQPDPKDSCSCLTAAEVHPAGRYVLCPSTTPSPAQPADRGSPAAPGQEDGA
In words: LanthaScreen Eu kinase binding assay for Axl. Particulars: read-out: Axl kinase binding activity (Kd). In outline: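 Kd values come from control-normalized FRET loss, referenced to DMSO vehicle wells, after 1 h at room temperature. Each compound was serially diluted over eight steps in DMSO and competed against Tracer 236 (Alexa Fluor 647) for the kinase, which was tagged by a Eu anti-GST antibody.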

[1] abbreviates: read-out: CSF1R kinase binding activity, Percent (%) inhibition.
[2] abbreviates: read-out: CSF1R kinase binding activity, Range.

Read-outs that look alike come from different tables or passages of the source.

Chain of CSF1R (P07333 20-972): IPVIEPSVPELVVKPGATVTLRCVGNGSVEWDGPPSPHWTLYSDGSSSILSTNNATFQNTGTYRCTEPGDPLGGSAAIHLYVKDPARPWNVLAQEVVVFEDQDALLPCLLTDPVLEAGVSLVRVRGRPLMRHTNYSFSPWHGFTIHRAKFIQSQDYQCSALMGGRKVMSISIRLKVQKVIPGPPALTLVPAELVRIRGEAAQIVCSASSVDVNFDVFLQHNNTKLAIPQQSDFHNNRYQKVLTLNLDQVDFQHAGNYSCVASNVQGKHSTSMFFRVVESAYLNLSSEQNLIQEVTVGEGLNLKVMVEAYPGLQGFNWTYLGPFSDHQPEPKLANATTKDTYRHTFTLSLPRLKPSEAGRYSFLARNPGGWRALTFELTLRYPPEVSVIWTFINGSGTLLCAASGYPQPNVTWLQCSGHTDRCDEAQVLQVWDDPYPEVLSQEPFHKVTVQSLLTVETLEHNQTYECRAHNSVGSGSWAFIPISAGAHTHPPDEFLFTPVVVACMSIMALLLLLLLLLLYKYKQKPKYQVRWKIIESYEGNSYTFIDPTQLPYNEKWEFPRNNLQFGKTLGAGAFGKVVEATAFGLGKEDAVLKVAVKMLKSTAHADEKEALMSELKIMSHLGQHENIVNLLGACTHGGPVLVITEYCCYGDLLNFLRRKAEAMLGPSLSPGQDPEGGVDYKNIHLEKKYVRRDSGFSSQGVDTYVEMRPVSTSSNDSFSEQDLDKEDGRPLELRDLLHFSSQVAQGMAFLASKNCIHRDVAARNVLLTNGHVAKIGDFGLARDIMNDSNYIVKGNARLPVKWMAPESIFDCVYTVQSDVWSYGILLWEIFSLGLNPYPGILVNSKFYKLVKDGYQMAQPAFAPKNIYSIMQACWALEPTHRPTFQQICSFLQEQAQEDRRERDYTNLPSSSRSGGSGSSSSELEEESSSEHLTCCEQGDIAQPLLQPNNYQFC

A word on the Kd: it is the concentration at which binding is half-saturated. For the molecule `COc1cc2nccc(Oc3ccc(NC(=O)c4nn(CCOC5CC5)cc4OCC(F)(F)F)cc3C)c2cc1OC` [Compound 117], the inhibition at 0.1 µM is 94% on CSF1R (setting [1]) and at least 80% on CSF1R (setting [2]). Moreover, on Axl, the Kd is below 0.1 µM.

In the case of `CNCCn1cc(OCC(F)(F)F)c(C(=O)Nc2ccc(Oc3ccnc4cc(OC)c(OC)cc34)nn2)n1` [Compound 127], the inhibition at 0.1 µM at CSF1R (setting [1]) is 38%; on CSF1R (setting [2]) it was below 50%. Also, the Kd on Axl was at least 0.5 µM.

For the molecule `COc1cc2nccc(Oc3ccc(NC(=O)c4nn(C5CC5)cc4OCC4CCC4)nc3)c2cc1OC` [Compound 111], the results for the inhibition at 0.1 µM on CSF1R (setting [1]) and at CSF1R (setting [2]) were 89% and at least 80%, respectively. In addition, the dissociation constant (Kd) at Axl was below 0.1 µM.

For the molecule `COc1cc2nccc(Oc3ccc(NC(=O)c4nn(CCOC5CC5)cc4OCC(F)(F)F)nn3)c2cc1OC` [Compound 120], the values for the inhibition at 0.1 µM on CSF1R (setting [1]) and on CSF1R (setting [2]) were 95% and at least 80%, respectively. In addition, the Kd at Axl is below 0.1 µM.

As to `CNCCOc1cn(C2CC2)nc1C(=O)Nc1ccc(Oc2ccnc3cc(OC)c(OC)cc23)nn1` [Compound 160], the values for the inhibition at 0.1 µM at CSF1R (setting [1]) and on CSF1R (setting [2]) were 25% and below 50%, respectively. For the same molecule, the Kd on Axl was at least 0.5 µM.

`CCn1cc(OCC2CCC2)c(C(=O)Nc2ccc(Oc3ccnc4cc(OC)c(OC)cc34)cn2)n1` [Compound 8]: the inhibition at 0.1 µM at CSF1R (setting [1]) was 94%; on CSF1R (setting [2]) it was at least 80%. The Kd at CSF1R (read-out: CSF1R kinase binding activity (Kd)) and at Axl was below 0.1 µM in each case.

Regarding `COc1cc2nccc(Oc3ccc(NC(=O)c4nn(C5CC5)cc4OCC(F)F)nc3)c2cc1OC` [Compound 109], the inhibition at 0.1 µM on CSF1R (setting [1]) was 98%; on CSF1R (setting [2]), at least 80%. Further, at Axl, the Kd is below 0.1 µM.

For the molecule `CCCn1cc(OCCN(C)C)c(C(=O)Nc2ccc(Oc3ccnc4cc(OC)c(OC)cc34)c(F)c2)n1` [Compound 165], the inhibition at 0.1 µM is 5% at CSF1R (setting [1]) and below 50% on CSF1R (setting [2]). The Kd at Axl is 0.1 to 0.5 µM.

On to `COc1cc2nccc(Oc3ccc(NC(=O)c4nn(CC5COC5)cc4OCC(F)(F)F)cc3)c2cc1OC` [Compound 101], for which the figures for the inhibition at 0.1 µM on CSF1R (setting [1]) and at CSF1R (setting [2]) were 45% and below 50%, respectively. The Kd at Axl is below 0.1 µM.

With `COc1cc2nccc(Oc3ccc(NC(=O)c4nn(CC5COC5)cc4OCC(F)(F)F)cn3)c2cc1OC` [Compound 134], the inhibition at 0.1 µM on CSF1R (setting [1]) was 18%; on CSF1R (setting [2]), below 50%. Besides, the Kd at Axl is below 0.1 µM.

As for `CCCn1cc(NCCC(F)(F)F)c(C(=O)Nc2ccc(Oc3ccnc4cc(OC)c(OC)cc34)cn2)n1` [Compound 158], the inhibition at 0.1 µM is 91% at CSF1R (setting [1]) and at least 80% at CSF1R (setting [2]). Besides, the Kd on Axl is below 0.1 µM.

Values taken from patent US12162858B2, “Quinoline derivatives as inhibitors of AXL/MER RTK and CSF1R” (QURIENT CO., LTD., priority 2018, dated 2024).
